Data on twelve compounds can be found in patent US10117878B2, “Ligands for nematode nuclear receptors and uses thereof” (priority 2006, dated 2018).

Test [1] deals with T1, GAL4-DAF-12 (Caenorhabditis elegans, UniProt G5EFF5).
T1 construct: 184-754aa (DAF-12); expressed in transfected cells; host or cells: HEK293
As to the kind of experiment: Co-transfection assay: GAL4-DAF-12 and GAL4-responsive luciferase reporter in HEK293 cells. As to conditions: bile acids 10 μM with IBAT co-transfected; assays in the presence or absence of co-transfected DAF-9. It is filed as cell-based, C. elegans.

Test [2] relates to daf-9(dh6) null worms. As to the kind of experiment: Rescue of daf-9 null worms by extracts of sterols incubated with DAF-9 or control microsomes.
Description: Microsomes containing hOR or hOR and Daf-9 generated from Sf9 cells were thawed on ice and added to a final concentration of 0.5 mg/mL in 0.1M potassium phosphate buffer in the presence of an NADPH regenerating system (50 U/mL DL-isocitrate dehydrogenase, 0.1 M isocitrate and 0.1 M MgCl2). Substrates were added from stock solutions at 10^−2 M to a final concentration of 100 μM (final reaction volume of 0.5 mL). The mixture was preincubated for 3 min at 37° C. and the reaction was initiated by the addition of NADPH (1 mM). After 16 hrs, the reactions were stopped by extraction with 2×2 mL of methyl-tert-butyl-ether and the top layers were combined and dried under nitrogen. In some experiments, 0.5 μg of 1,4-cholestadiene-3-one was added as an internal standard for the extraction.
Individual 3-keto sterols and their respective 3β-hydroxy sterols were incubated with Sf9 cell microsomes co-expressing DAF-9 and the human P450 oxidoreductase (hOR). As a control, microsomes from cells expressing hOR alone were used.

Molecules are shown by their SMILES.

T1 sequence (G5EFF5 184-753): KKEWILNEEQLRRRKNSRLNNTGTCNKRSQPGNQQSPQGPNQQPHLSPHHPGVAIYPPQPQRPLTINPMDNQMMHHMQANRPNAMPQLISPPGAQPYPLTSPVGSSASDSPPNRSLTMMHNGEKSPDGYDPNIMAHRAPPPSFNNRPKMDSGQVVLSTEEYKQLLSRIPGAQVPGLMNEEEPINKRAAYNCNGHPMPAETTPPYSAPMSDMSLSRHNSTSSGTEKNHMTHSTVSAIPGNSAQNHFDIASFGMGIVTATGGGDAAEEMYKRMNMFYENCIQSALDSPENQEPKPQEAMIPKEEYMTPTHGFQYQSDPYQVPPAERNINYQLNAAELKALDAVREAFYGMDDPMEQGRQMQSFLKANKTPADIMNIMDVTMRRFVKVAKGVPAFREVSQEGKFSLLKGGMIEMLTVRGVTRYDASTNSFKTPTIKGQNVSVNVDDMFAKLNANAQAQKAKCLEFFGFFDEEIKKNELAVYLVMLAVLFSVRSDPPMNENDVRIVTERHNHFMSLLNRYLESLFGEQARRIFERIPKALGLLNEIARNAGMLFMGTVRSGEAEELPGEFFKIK

Turning to `CC(=O)[C@H]1CC[C@H]2[C@@H]3CCC4=CC(=O)CC[C@]4(C)[C@H]3CC[C@]12C` [progesterone], the “Activation of DAF-12, initial compound screen” value (“Activation” below) in test [1] was “No other bile acids or endocrine hormones tested activated DAF-12”. The same measure, in the same setting: in the case of `C[C@H](CCC(=O)O)[C@H]1CC[C@H]2[C@@H]3[C@H](O)C[C@@H]4C[C@H](O)CC[C@]4(C)[C@H]3CC[C@]12C` [chenodeoxycholic acid] it was “No other bile acids or endocrine hormones tested activated DAF-12”. The same measure, in the same setting: in the case of `C[C@H](CCC(=O)O)[C@H]1CC[C@H]2[C@@H]3C(=O)C[C@@H]4C[C@H](O)CC[C@]4(C)[C@H]3CC[C@]12C` [7-keto-lithocholic acid] it was “No other bile acids or endocrine hormones tested activated DAF-12”; in that of `C[C@]12C[C@H](O)[C@H]3[C@@H](CCC4=CC(=O)CC[C@@]43C)[C@@H]1CC[C@@H]2C(=O)CO` [corticosterone], “No other bile acids or endocrine hormones tested activated DAF-12”. Same read-out and setting: to `C[C@H](CCC(=O)O)[C@H]1CC[C@H]2[C@@H]3[C@H](O)C[C@@H]4C[C@H](O)CC[C@]4(C)[C@H]3C[C@H](O)[C@]12C` [cholic acid] belongs “No other bile acids or endocrine hormones tested activated DAF-12”; to `C=C1/C(=C\C=C2/CCC[C@]3(C)[C@@H]([C@H](C)CCCC(C)(C)O)CC[C@@H]23)C[C@@H](O)C[C@@H]1O` [1,25-dihydroxyvitamin D3], “No other bile acids or endocrine hormones tested activated DAF-12”. Turning to `C[C@H](CCC(=O)O)[C@H]1CC[C@H]2[C@@H]3CC(=O)[C@@H]4C[C@H](O)CC[C@]4(C)[C@H]3CC[C@]12C` [6-keto-lithocholic acid], the “Activation” value in test [1] is listed as “No other bile acids or endocrine hormones tested activated DAF-12”.

As to `CC(C)CCC[C@@H](C)[C@H]1CC[C@H]2[C@@H]3CC=C4C[C@@H](O)CC[C@]4(C)[C@H]3CC[C@]12C` [cholesterol], the “effect on daf-9 animals, DAF-9 microsomes (in words)” value in test [2] (extracts from DAF-9 microsomes incubated with 100 μM sterol) was “no effect was seen”. Also, the “effect on daf-9 phenotypes, control microsomes (in words)” value in test [2] (extracts from control (hOR only) microsomes incubated with 100 μM sterol) is listed as “no effect was seen”.

Take `C[C@H](CCC(=O)O)[C@H]1CC[C@H]2[C@@H]3CC[C@@H]4CC(=O)CC[C@]4(C)[C@H]3CC[C@]12C` [3-keto-lithocholic acid]: the “Activation” value in test [1] was “weak, micromolar activator of DAF-12 independent of DAF-9”. The same measure, in the same setting: to `CC(=O)[C@H]1CC[C@H]2[C@@H]3CC=C4C[C@@H](O)CC[C@]4(C)[C@H]3CC[C@]12C` [pregnenolone] belongs “No other bile acids or endocrine hormones tested activated DAF-12”. Still for that read-out and setting: in the case of `C[C@]12CC[C@H]3[C@@H](CCC4=CC(=O)CC[C@@]43C)[C@@H]1CC[C@@H]2O` [testosterone] it was “No other bile acids or endocrine hormones tested activated DAF-12”.

In the case of `CC(C)(O)CC[C@@H](O)[C@](C)(O)[C@H]1CC[C@@]2(O)C3=CC(=O)[C@@H]4C[C@@H](O)[C@@H](O)C[C@]4(C)[C@H]3CC[C@]12C` [20-hydroxyecdysone], the “Activation” value in test [1] is recorded as “No other bile acids or endocrine hormones tested activated DAF-12”.
